Test results: patent US11730723B2, “Compounds and methods for treating viral infections” (priority 2020, dated 2023)
Converted amounts (≈) assume the structure as drawn. “And” between values parts separate entries of the source, which are not always exact repeats. Identical values can stand only once. Like-named read-outs stand apart in the source and are kept apart here.

What was measured:
HCoV-OC43 [1] = experiment: HCoV-OC43 CPE assay in Huh-7 cells (neutral red uptake, 6 days); format: cell-based, human coronavirus (HCoV) OC43 strain; conditions: for Raw OD-Absorbance 490 nm: infected Huh-7, neutral red uptake, individual replicates
HCoV-OC43 [2] = experiment: HCoV-OC43 efficacy in H292 cells (MTT, 6 days); format: cell-based, HCoV-OC43 (Betacoronavirus 1)
HCoV 229E = HCoV 229E CPE assay in MRC-5 cells (CellTiter Glo); format: cell-based, human coronavirus (HCoV) 229E; conditions: unidentified human coronavirus, MRC5; MRC-5 cells, CellTiter Glo; read-out: HCoV 229E CPE assay EC50
HCoV OC43 = HCoV OC43 CPE assay in Huh7 cells (CellTiter Glo); format: cell-based, human coronavirus (HCoV) OC43; conditions: Betacoronavirus 1, OC43, Huh-7; Huh7 cells, CellTiter Glo; read-out: HCoV OC43 CPE Assay EC50
[3] = tested on: MERS coronavirus (EMC strain); experiment: microbe, parasite or virus in culture; format: cell-based, MERS-CoV; conditions: Middle East respiratory syndrome-related coronavirus
[4] = Cytotoxicity in HepG2 2.2.15 cells (MTS); format: cell-based; conditions: human, same assay plate
[5] = tested on: SARS-CoV-2 (USA-WA1/2020); conditions: Compound 1 at 25 μM; HCQ at 5 μM; remdesivir 10 μM
Vero E6 cells = conditions: for viability of Vero E6 cells (percent of vehicle alone): 2-day treatment, mean ± SD of duplicates
in vitro [6] = conditions: African green monkey
in vitro [7] = conditions: African green monkey, Vero 76 cells
in vitro [8] = conditions: African green monkey; remark: listed apart in the source
[9] = tested on: SARS-CoV-2 (USA-WA1/2020); experiment: microbe, parasite or virus in culture
[10] = Cytotoxicity on Huh7 cells (CellTiter Glo); conditions: human, Huh7 cells without virus
H292 cells (NCI-H292) = experiment: Cytotoxicity in uninfected H292 cells (MTT); conditions: CC50, uninfected H292 cells
[11] = Cytotoxicity on MRC-5 cells (CellTiter Glo); conditions: human, MRC-5 cells without virus
[12] = tested on: alpha coronavirus 229E (CoV-229E); experiment: CoV-229E virus-induced CPE inhibition in MRC-5 cells (XTT); conditions: 6 days
[13] = tested on: HBV wild-type strain ayw1; experiment: Primary anti-HBV assay in HepG2 2.2.15 cells (qPCR of HBV DNA); conditions: Hepatitis B virus, HepG2 2.2.15, 144 h
Huh-7 cells = experiment: Cytotoxicity / viability of uninfected Huh-7 cells (XTT, 6 days); conditions: 6 days, raw absorbance 490 nm, individual replicates, listed as Compd. 1
[14] = tested on: dengue virus (DENV) serotype 2 strain D2S221; experiment: Dengue virus D2S221 inhibition assay in Vero cells (immunostaining); conditions: read-out: D2S221 IC50

In the case of `CC(C)C[C@](C)(N)COc1ccc(-c2ccnc(C(F)F)c2)nc1C(F)F` [Compound 1, (S)-1-((2′,6-bis(difluoromethyl)-[2,4′-bipyridin]-5-yl)oxy)-2,4-dimethylpentan-2-amine], the EC50 (HCoV-OC43 [1]; Betacoronavirus 1, OC43, 144 h, Huh-7 cells, 6 days, neutral red) is reported as over 30 µM, the inhibition at 0.01 µM (HCoV-OC43 [1]; Betacoronavirus 1, OC43, Huh-7, 0.01 μM, mean of duplicates, read-out: Inhibition of OC43 Virus-Induced CPE in Huh-7 Cells) is reported as -0.4% and the inhibition at 0.04 µM (HCoV-OC43 [1]; Betacoronavirus 1, OC43, Huh-7, 0.04 μM, mean of duplicates, read-out: Inhibition of OC43 Virus-Induced CPE in Huh-7 Cells) is reported as -3%. It also gave an inhibition at 0.12 µM (HCoV-OC43 [1]; Betacoronavirus 1, OC43, Huh-7, 0.12 μM, mean of duplicates, read-out: Inhibition of OC43 Virus-Induced CPE in Huh-7 Cells) of -1.2%, an inhibition at 0.4 µM (HCoV-OC43 [1]; Betacoronavirus 1, OC43, Huh-7, 0.4 μM, mean of duplicates, read-out: Inhibition of OC43 Virus-Induced CPE in Huh-7 Cells) of -1.8% and an inhibition at 1.1 µM (HCoV-OC43 [1]; Betacoronavirus 1, OC43, Huh-7, 1.1 μM, mean of duplicates, read-out: Inhibition of OC43 Virus-Induced CPE in Huh-7 Cells) of 5.4%. It also gave an inhibition at 3.3 µM (HCoV-OC43 [1]; Betacoronavirus 1, OC43, Huh-7, 3.3 μM, mean of duplicates, read-out: Inhibition of OC43 Virus-Induced CPE in Huh-7 Cells) of 25.2%, an inhibition at 10 µM (HCoV-OC43 [1]; Betacoronavirus 1, OC43, Huh-7, 10 μM, mean of duplicates, read-out: Inhibition of OC43 Virus-Induced CPE in Huh-7 Cells) of 30.7% and an inhibition at 30 µM (HCoV-OC43 [1]; Betacoronavirus 1, OC43, Huh-7, 30 μM, mean of duplicates, read-out: Inhibition of OC43 Virus-Induced CPE in Huh-7 Cells) of -7.1%. For the same compound, the “Raw OD-Absorbance 490 nm” value (HCoV-OC43 [1]; 0.01 μM, listed as Compd. 1) was 0.102 and 0.101, the “Raw OD-Absorbance 490 nm” value (HCoV-OC43 [1]; 0.04 μM, listed as Compd. 1) was 0.078 and 0.089 and the “Raw OD-Absorbance 490 nm” value (HCoV-OC43 [1]; 0.12 μM, listed as Compd. 1) was 0.092 and 0.099. The “Raw OD-Absorbance 490 nm” value (HCoV-OC43 [1]; 0.4 μM) was 0.092, the “Raw OD-Absorbance 490 nm” value (HCoV-OC43 [1]; 1.1 μM, listed as Compd. 1) was 0.115 and 0.165 and the “Raw OD-Absorbance 490 nm” value (HCoV-OC43 [1]; 3.3 μM, listed as Compd. 1) was 0.292 and 0.253. The “Raw OD-Absorbance 490 nm” value (HCoV-OC43 [1]; 10 μM, listed as Compd. 1) was 0.322 and 0.297, the “Raw OD-Absorbance 490 nm” value (HCoV-OC43 [1]; 30 μM, listed as Compd. 1) was 0.057 and 0.056 and the EC50 (HCoV-OC43 [2]; Betacoronavirus 1, NCI-H292, EC50, HCoV-OC43 infected H292 cells, MTT, read-out: Efficacy) was 1430 nM. The “antiviral activity against β-coronavirus OC43 in H292 cells (in words)” value (HCoV-OC43 [2]; viability of infected H292 cells, FIG. 6) was “significant antiviral effect”, the EC50 (HCoV 229E) was 3.64 µM and the EC50 (HCoV OC43) was 6 µM. It also gave an EC50 ([3]; Vero 76, read-out: EC50 measured by microscopic visual assay) of 6.4 µg/mL (≈ 16.6 µM), an EC50 ([3]; Vero 76, read-out: EC50 measured by neutral red assay) of 5.4 µg/mL (≈ 14 µM) and a CC50 [4] of 29.3 µM. The “prevention of the SARS-CoV-2 induced CPE (in words)” value [5] was “partially prevented the virus induced cytopathic effect”, the “viability of Vero E6 cells (percent of vehicle alone)” value (Vero E6 cells; 1.56 μM) was 101.0 ± 5.2% and the “viability of Vero E6 cells (percent of vehicle alone)” value (Vero E6 cells; 3.13 μM) was 97.1 ± 5.2%. For the same compound, the “viability of Vero E6 cells (percent of vehicle alone)” value (Vero E6 cells; 6.3 μM) was 86.2 ± 3.2%, the “viability of Vero E6 cells (percent of vehicle alone)” value (Vero E6 cells; 12.5 μM) was 83.3 ± 1.7% and the “viability of Vero E6 cells (percent of vehicle alone)” value (Vero E6 cells; 25 μM) was 80.7 ± 2.4%. The “viability of Vero E6 cells (percent of vehicle alone)” value (Vero E6 cells; 50 μM) was 17.3 ± 8.4%, the “viability of Vero E6 cells (percent of vehicle alone)” value (Vero E6 cells; 100 μM) was 2.0 ± 0.2% and the “viability of Vero E6 cells (in words)” value (Vero E6 cells; Compound 1 at concentrations lower than 25 μM, HCQ at all concentrations tested) was “not significantly changed”. The CC50 (in vitro [6]) was 37 µM, the CC50 (in vitro [7]; CC50 measured by microscopic visual assay) was 22 µg/mL (≈ 57.1 µM) and the CC50 (in vitro [7]; CC50 measured by neutral red assay) was 11 µg/mL (≈ 28.5 µM). It also gave a CC50 at 4 days (in vitro [8]) of 13.5 µM, an IC50 ([9]; Severe acute respiratory syndrome coronavirus 2, Vero C1008, 48 h, read-out: Live SARS-CoV-2 Antiviral Assay IC50) of 12.5 to 25 µM and a viability at 25 µM ([9]; Severe acute respiratory syndrome coronavirus 2, Vero C1008, read-out: cell viability in the infected culture, of the levels observed in uninfected cells) of 80%. The CC50 [10] was 13.2 µM, the Cytotoxicity (H292 cells (NCI-H292)) was 57.72 µM and the CC50 [11] was 15 µM. The EC50 [12] was ~2400 nM and 2400 nM, the EC50 [13] was 6.35 µM and the EC90 [13] was over 100 µM. The “Viability of Huh-7 Cells (A490)” value (Huh-7 cells; 0.01 μM) was 0.749 and 0.746, the “Viability of Huh-7 Cells (A490)” value (Huh-7 cells; 0.04 μM) was 0.731 and 0.759 and the “Viability of Huh-7 Cells (A490)” value (Huh-7 cells; 0.12 μM) was 0.822 and 0.825. The “Viability of Huh-7 Cells (A490)” value (Huh-7 cells; 0.37 μM) was 0.886 and 0.928, the “Viability of Huh-7 Cells (A490)” value (Huh-7 cells; 1.1 μM) was 0.925 and 0.996 and the “Viability of Huh-7 Cells (A490)” value (Huh-7 cells; 3.3 μM) was 1.017 and 1.085. The “Viability of Huh-7 Cells (A490)” value (Huh-7 cells; 10 μM) was 0.915 and 1.016, the “Viability of Huh-7 Cells (A490)” value (Huh-7 cells; 30 μM) was 0.052 and 0.053 and the “Viability of Huh-7 Cells (A490)” value (Huh-7 cells; 90 μM) was 0.055 and 0.054. It also gave an IC50 [14] of 6.66 µM.
